Measured values taken from patent US10206937B2, “Boronic acid derivatives and therapeutic uses thereof” (Qpex Biopharma, Inc., priority 2014, dated 2019).

Assays:
[1] = tested on: KP1081 (NDM-1, TEM-1, SHV-11, CMY-6, CTX-M-15); experiment: Carbapenem potentiation against clinical isolate (MIC); format: cell-based
[2] = tested on: AB1144 (NDM-1); experiment: as above; format: cell-based, Acinetobacter baumannii; details: AB1144
[3] = tested on: KP1064 (KPC-2, SHV-11, TEM-1); experiment: as above; format: cell-based, Klebsiella pneumoniae
[4] = tested on: KP1086 (TEM, SHV, CTX-M-15, OXA-48); experiment: as above; format: cell-based, Klebsiella pneumoniae
[5] = tested on: KP1074 (KPC-3, SHV-11, TEM); experiment: as above; format: cell-based, Klebsiella pneumoniae
[6] = tested on: EA1019 (SHV-5, VIM-1); experiment: as above; format: cell-based, Enterobacter aerogenes; details: EA1019
[7] = tested on: KP1054 (VIM-1, SHV-11); experiment: as above; format: cell-based, Klebsiella pneumoniae
[8] = tested on: KP1059 (VIM-1, SHV-11); experiment: Biapenem potentiation against clinical isolate (MIC); format: cell-based; details: Klebsiella pneumoniae, biapenem alone
From the text: The results are present in Table 9.

[9] = tested on: KP1014 (VIM-1); experiment: Carbapenem potentiation against clinical isolate (MIC); format: cell-based, Klebsiella pneumoniae
[10] = tested on: KP1004 (KPC-2, TEM-1, SHV-11); experiment: as above; format: cell-based, Klebsiella pneumoniae
[11] = tested on: KP1084 (KPC-3, SHV-11, TEM-1); experiment: as above; format: cell-based, Klebsiella pneumoniae
[12] = tested on: KP1087 (KPC-2, CTX-M-15, SHV-11, TEM-1); experiment: as above; format: cell-based
[13] = tested on: EC1064 (NDM-1, CMY-6, CTX-M-15); experiment: as above; format: cell-based, Escherichia coli
[14] = Klebsiella pneumoniae, biapenem alone

C[C@@H](O)[C@H]1C(=O)N2C(C(=O)[O-])=C(SC3Cn4cnc[n+]4C3)[C@H](C)[C@H]12 (stereo partly shown) [Biapenem]
MIC [1, 14]: > 10 µg/mL
Carbapenem MIC Alone ([1]; antibiotic alone): Z (MIC of greater than 10 μg/mL)
Carbapenem MIC Alone ([2]; antibiotic alone): Y (MIC of 1 μg/mL to 10 μg/mL)
MIC ([2]; Acinetobacter baumannii, biapenem alone): > 10 µg/mL
MIC [3, 14]: > 10 µg/mL
Carbapenem MIC Alone ([3]; antibiotic alone): Z (MIC of greater than 10 μg/mL)
MIC [4, 14]: > 10 µg/mL
Carbapenem MIC Alone ([4]; antibiotic alone): Z (MIC of greater than 10 μg/mL)
MIC [5, 14]: > 10 µg/mL
Carbapenem MIC Alone ([5]; antibiotic alone): Z (MIC of greater than 10 μg/mL)
Carbapenem MIC Alone ([6]; antibiotic alone): Z (MIC of greater than 10 μg/mL)
MIC ([6]; Klebsiella aerogenes, biapenem alone): > 10 µg/mL
MIC [7, 14]: > 10 µg/mL
Carbapenem MIC Alone ([7]; antibiotic alone): Z (MIC of greater than 10 μg/mL)
MIC [8]: > 10 µg/mL
MIC [9, 14]: > 10 µg/mL
Carbapenem MIC Alone ([9]; antibiotic alone): Z (MIC of greater than 10 μg/mL)
MIC [10, 14]: > 10 µg/mL
Carbapenem MIC Alone ([10]; antibiotic alone): Y (MIC of 1 μg/mL to 10 μg/mL)
MIC [11, 14]: > 10 µg/mL
Carbapenem MIC Alone ([11]; antibiotic alone): Z (MIC of greater than 10 μg/mL)
MIC [12, 14]: > 10 µg/mL
Carbapenem MIC Alone ([12]; antibiotic alone): Z (MIC of greater than 10 μg/mL)
MIC ([13]; Escherichia coli, biapenem alone): > 10 µg/mL
Carbapenem MIC Alone ([13]; antibiotic alone): Z (MIC of greater than 10 μg/mL)
